Test results from PMC3597565, “Display of Multimeric Antimicrobial Peptides on the Escherichia coli Cell Surface and Its Application as Whole-Cell Antibiotics” (PLoS ONE, 2013).
Converted amounts (≈) assume the structure as drawn. One block for each compound: values may come before it. Peptide text beside a SMILES is read from it.

Assays:
Type in all cases: cell-based
[1] = tested on: Bacillus subtilis (ATCC 62037); settings: ATCC 62037, 3 h; for MIC: pH 7.4
Experimental: (§1) The antimicrobial activity of each peptide was determined against eight representative microorganisms, including Gram-positive and Gram-negative bacteria and fungi, using the broth micro dilution assay as described by Park et al. with a slight modification. Briefly, mid-logarithmic phase cells were diluted to 1×10^5 cfu/ml in 10 mM sodium phosphate buffer (NAPB), pH 7.4. Each well of 96-well propylene micro titer plates (Costar, Cambridge, MA, USA) was filled with 90 µl of the diluted cell suspension and 10 µl of serially diluted peptide samples. After incubation for 3 h, fresh medium (trypticase soy broth for bacteria and Saboraud' medium for fungi) was added to the mixture and incubated at 37°C (bacteria) or 30°C (fungi) for an additional 12 h. Inhibition of growth was determined by measuring the absorbance at 620 nm with a Model 550 Microplate Reader (Bio-Rad, Hercules, CA, USA). […] The MIC values were calculated as an average of two independent experiments performed in triplicate.
(§2) ^a To determine the effect of protease digestion on the antimicrobial activity of Buf IIIb-L, synthetic Buf IIIb-L was first incubated with pepsin, trypsin, or chymotrypsin. After incubation at 37 °C for 30 min, the antimicrobial activity of the digested peptide was determined against eight representative microorganisms, including Gram-positive and Gram-negative bacteria and fungi, as described in Materials and Methods.

[2] = tested on: Candida albicans (ATCC 10231); settings: ATCC 10231, 3 h; for MIC: pH 7.4
Experimental: as §1, §2

[3] = tested on: Escherichia coli (ATCC 27325); settings: ATCC 27325, 3 h; for MIC: pH 7.4
Experimental: as §1, §2

[4] = tested on: Pseudomonas putida (ATCC 17426); settings: ATCC 17426, 3 h; for MIC: pH 7.4
Experimental: as §1, §2

[5] = tested on: Saccharomyces cerevisiae (ATCC 44774); settings: ATCC 44774, 3 h; for MIC: pH 7.4
Experimental: as §1, §2

[6] = tested on: Salmonella enteritidis (ATCC 13076); settings: ATCC 13076, 3 h; for MIC: pH 7.4
Experimental: as §1, §2

[7] = tested on: Staphylococcus aureus (ATCC 15752); settings: ATCC 15752, 3 h; for MIC: pH 7.4
Experimental: as §1, §2

[8] = tested on: Streptococcus mutans (ATCC 25175); settings: ATCC 25175, 3 h; for MIC: pH 7.4
Experimental: as §1, §2

[9] = tested on: eight representative microorganisms, including Gram-positive and Gram-negative bacteria and fungi; settings: 3 h
Experimental: as §1

[10] = tested on: Listeria monocytogenes (ATCC 15313); settings: ATCC 15313, 3 h
Experimental: as §1, with “After incubation for 3 h, fresh medium (trypticase soy broth for bacteria and Saboraud' medium for fungi) was added to the mixture and incubated at 37°C (bacteria) or 30°C (fungi) for an additional 12 h.” left out
Antimicrobial activities of the pepsin-digested peptide mixtures obtained from E. coli cells with surface-expressed LO-Bn fusion proteins were tested against two oral infectious pathogens, Salmonella enteritidis (ATCC 13076) and Listeria monocytogenes (ATCC 15313) as described above except using 10 µl of the 20-fold diluted peptide mixtures obtained from 1×10^11 E. coli cells with surface-expressed LO-Bn fusion proteins instead of synthetic peptide. Growth of cells was determined by measuring absorbance at 620 nm with a Model 550 Microplate Reader (Bio-Rad). […]

Structure (SMILES): CC[C@H](C)[C@H](NC(=O)[C@@H]1CCCN1C(=O)[C@H](Cc1c[nH]c2ccccc12)NC(=O)[C@H](CCC(N)=O)NC(=O)[C@H](CCCNC(=N)N)NC(=O)[C@@H](NC(=O)[C@@H](NC(=O)[C@@H](N)CCCNC(=N)N)C(C)C)C(C)C)C(=O)NCC(=O)N[C@@H](CCCNC(=N)N)C(=O)N[C@H](C(=O)N[C@H](C(=O)N[C@@H](CCCNC(=N)N)C(=O)N[C@@H](CCCNC(=N)N)C(=O)N[C@H](C(=O)N[C@H](C(=O)N[C@@H](CCCNC(=N)N)C(=O)N[C@@H](CCCNC(=N)N)C(=O)N[C@H](C(=O)N[C@H](C(=O)N[C@@H](CCCNC(=N)N)C(=O)N[C@@H](Cc1ccccc1)C(=O)O)C(C)C)C(C)C)C(C)C)C(C)C)C(C)C)C(C)C [Buf IIIb-F] (H-RVVRQWPIGRVVRRVVRRVVRF-OH)
MIC [1]: 2 mg/L (≈ 0.717 µM)
MIC [2]: 0.5 mg/L (≈ 0.179 µM)
MIC [3]: 4 mg/L (≈ 1.43 µM)
MIC [4]: 4 mg/L (≈ 1.43 µM)
MIC [5]: 0.5 mg/L (≈ 0.179 µM)
MIC [6]: 2 mg/L (≈ 0.717 µM)
MIC [7]: 2 mg/L (≈ 0.717 µM)
MIC [8]: 2 mg/L (≈ 0.717 µM)

Structure (SMILES): CC[C@H](C)[C@H](NC(=O)[C@@H]1CCCN1C(=O)[C@H](Cc1c[nH]c2ccccc12)NC(=O)[C@H](CCC(N)=O)NC(=O)[C@H](CCCNC(=N)N)NC(=O)[C@@H](NC(=O)[C@@H](NC(=O)[C@@H](N)CCCNC(=N)N)C(C)C)C(C)C)C(=O)NCC(=O)N[C@@H](CCCNC(=N)N)C(=O)N[C@H](C(=O)N[C@H](C(=O)N[C@@H](CCCNC(=N)N)C(=O)N[C@@H](CCCNC(=N)N)C(=O)N[C@H](C(=O)N[C@H](C(=O)N[C@@H](CCCNC(=N)N)C(=O)N[C@@H](CCCNC(=N)N)C(=O)N[C@H](C(=O)N[C@H](C(=O)N[C@@H](CCCNC(=N)N)C(=O)N[C@@H](CC(C)C)C(=O)O)C(C)C)C(C)C)C(C)C)C(C)C)C(C)C)C(C)C [Buf IIIb-L] (H-RVVRQWPIGRVVRRVVRRVVRL-OH)
MIC of Buf IIIb-L digested with Chymotrypsin [1]: >256 mg/L
MIC of Buf IIIb-L digested with Pepsin [1]: 2 mg/L
MIC of Buf IIIb-L digested with Trypsin [1]: >256 mg/L
MIC [1]: 2 mg/L (≈ 0.726 µM)
MIC of Buf IIIb-L digested with Chymotrypsin [2]: >256 mg/L
MIC of Buf IIIb-L digested with Pepsin [2]: 2 mg/L
MIC of Buf IIIb-L digested with Trypsin [2]: >256 mg/L
MIC [2]: 2 mg/L (≈ 0.726 µM)
MIC of Buf IIIb-L digested with Chymotrypsin [3]: >256 mg/L
MIC of Buf IIIb-L digested with Pepsin [3]: 2 mg/L
MIC of Buf IIIb-L digested with Trypsin [3]: >256 mg/L
MIC [3]: 2 mg/L (≈ 0.726 µM)
MIC of Buf IIIb-L digested with Chymotrypsin [4]: >256 mg/L
MIC of Buf IIIb-L digested with Pepsin [4]: 4 mg/L
MIC of Buf IIIb-L digested with Trypsin [4]: >256 mg/L
MIC [4]: 4 mg/L (≈ 1.45 µM)
MIC of Buf IIIb-L digested with Chymotrypsin [5]: >256 mg/L
MIC of Buf IIIb-L digested with Pepsin [5]: 2 mg/L
MIC of Buf IIIb-L digested with Trypsin [5]: >256 mg/L
MIC [5]: 2 mg/L (≈ 0.726 µM)
MIC of Buf IIIb-L digested with Chymotrypsin [6]: >256 mg/L
MIC of Buf IIIb-L digested with Pepsin [6]: 4 mg/L
MIC of Buf IIIb-L digested with Trypsin [6]: >256 mg/L
MIC [6]: 4 mg/L (≈ 1.45 µM)
MIC of Buf IIIb-L digested with Chymotrypsin [7]: >256 mg/L
MIC of Buf IIIb-L digested with Pepsin [7]: 2 mg/L
MIC of Buf IIIb-L digested with Trypsin [7]: >256 mg/L
MIC [7]: 2 mg/L (≈ 0.726 µM)
MIC of Buf IIIb-L digested with Chymotrypsin [8]: >256 mg/L
MIC of Buf IIIb-L digested with Pepsin [8]: 2 mg/L
MIC of Buf IIIb-L digested with Trypsin [8]: >256 mg/L
MIC [8]: 2 mg/L (≈ 0.726 µM)
MIC [10]: 2 mg/L (≈ 0.726 µM)

Now from value to compound:

MIC [1]: 2 mg/L (≈ 0.757 µM)
MIC [2]: 1 mg/L (≈ 0.378 µM)
MIC [3]: 1 mg/L (≈ 0.378 µM)
MIC [4]: 1 mg/L (≈ 0.378 µM)
MIC [5]: 0.5 mg/L (≈ 0.189 µM)
MIC [6]: 2 mg/L (≈ 0.757 µM)
MIC [7]: 2 mg/L (≈ 0.757 µM)
MIC [8]: 2 mg/L (≈ 0.757 µM)
MIC, range over the microorganisms of Table 2 [9]: 0.5 to 2 mg/L
Structure (SMILES): CC[C@H](C)[C@H](NC(=O)[C@@H]1CCCN1C(=O)[C@H](Cc1c[nH]c2ccccc12)NC(=O)[C@H](CCC(N)=O)NC(=O)[C@H](CCCNC(=N)N)NC(=O)[C@@H](NC(=O)[C@@H](NC(=O)[C@@H](N)CCCNC(=N)N)C(C)C)C(C)C)C(=O)NCC(=O)N[C@@H](CCCNC(=N)N)C(=O)N[C@H](C(=O)N[C@H](C(=O)N[C@@H](CCCNC(=N)N)C(=O)N[C@@H](CCCNC(=N)N)C(=O)N[C@H](C(=O)N[C@H](C(=O)N[C@@H](CCCNC(=N)N)C(=O)N[C@@H](CCCNC(=N)N)C(=O)N[C@H](C(=O)N[C@H](C(=O)N[C@@H](CCCNC(=N)N)C(=O)O)C(C)C)C(C)C)C(C)C)C(C)C)C(C)C)C(C)C [Buf IIIb] (H-RVVRQWPIGRVVRRVVRRVVR-OH)

MIC [1]: 2 mg/L (≈ 0.713 µM)
MIC [2]: 4 mg/L (≈ 1.43 µM)
MIC [3]: 4 mg/L (≈ 1.43 µM)
MIC [4]: 2 mg/L (≈ 0.713 µM)
MIC [5]: 1 mg/L (≈ 0.356 µM)
MIC [6]: 2 mg/L (≈ 0.713 µM)
MIC [7]: 2 mg/L (≈ 0.713 µM)
MIC [8]: 2 mg/L (≈ 0.713 µM)
Structure (SMILES): CC[C@H](C)[C@H](NC(=O)[C@@H]1CCCN1C(=O)[C@H](Cc1c[nH]c2ccccc12)NC(=O)[C@H](CCC(N)=O)NC(=O)[C@H](CCCNC(=N)N)NC(=O)[C@@H](NC(=O)[C@@H](NC(=O)[C@@H](N)CCCNC(=N)N)C(C)C)C(C)C)C(=O)NCC(=O)N[C@@H](CCCNC(=N)N)C(=O)N[C@H](C(=O)N[C@H](C(=O)N[C@@H](CCCNC(=N)N)C(=O)N[C@@H](CCCNC(=N)N)C(=O)N[C@H](C(=O)N[C@H](C(=O)N[C@@H](CCCNC(=N)N)C(=O)N[C@@H](CCCNC(=N)N)C(=O)N[C@H](C(=O)N[C@H](C(=O)N[C@@H](CCCNC(=N)N)C(=O)N[C@@H](Cc1ccc(O)cc1)C(=O)O)C(C)C)C(C)C)C(C)C)C(C)C)C(C)C)C(C)C [Buf IIIb-Y] (H-RVVRQWPIGRVVRRVVRRVVRY-OH)

MIC [1]: 1 mg/L (≈ 0.391 µM)
MIC [2]: 2 mg/L (≈ 0.781 µM)
MIC [3]: 1 mg/L (≈ 0.391 µM)
MIC [4]: 2 mg/L (≈ 0.781 µM)
MIC [5]: 2 mg/L (≈ 0.781 µM)
MIC [6]: 2 mg/L (≈ 0.781 µM)
MIC [7]: 2 mg/L (≈ 0.781 µM)
MIC [8]: 2 mg/L (≈ 0.781 µM)
Structure (SMILES): CC(C)C[C@H](NC(=O)CNC(=O)[C@H](C)NC(=O)[C@@H](N)CCCNC(=N)N)C(=O)N[C@@H](CCC(N)=O)C(=O)N[C@@H](Cc1ccccc1)C(=O)N1CCC[C@H]1C(=O)N[C@H](C(=O)NCC(=O)N[C@@H](CCCNC(=N)N)C(=O)N[C@@H](CC(C)C)C(=O)N[C@@H](CC(C)C)C(=O)N[C@@H](CCCNC(=N)N)C(=O)N[C@@H](CCCNC(=N)N)C(=O)N[C@@H](CC(C)C)C(=O)N[C@@H](CC(C)C)C(=O)N[C@@H](CCCNC(=N)N)C(=O)N[C@@H](CCCNC(=N)N)C(=O)N[C@@H](CC(C)C)C(=O)N[C@@H](CC(C)C)C(=O)N[C@@H](CCCNC(=N)N)C(=O)O)C(C)C [Buforin llb, reference compound] (H-RAGLQFPVGRLLRRLLRRLLR-OH; N-terminus and C-terminus assumed)
